For 16 compounds, MIC results are on record in DBAASP.

Values after ≈ are worked out from the molar mass of the structure shown. Some results are limits rather than exact numbers.

A word on the MIC: it is the least concentration at which growth counts as inhibited. High values mean a need for much substance, low ones inhibition by little substance.

What all share (assay): ≥ marks a high value that may be exact or a test limit, other limits are often not marked, values filed in µg/mL are converted to µM
The subject of one experiment is Streptococcus mutans.
For experiment [1], the system named is Pseudomonas aeruginosa Ps4.
Experiment [2] relates to Staphylococcus aureus ATCC 43300.
Experiment [3] deals with Pseudomonas aeruginosa ATCC 27853.
For experiment [4], the system named is Enterococcus faecalis ATCC 29212.
Experiment [5] relates to Staphylococcus aureus ATCC 29213.
The subject of experiment [6] is Bacillus subtilis CMCC 63501.
The test system of the next experiment is Escherichia coli UB1005.
Experiment [7] has as its system Salmonella enterica subsp. enterica serovar Typhimurium C77-31.
For experiment [8], the system named is Salmonella enterica subsp. enterica serovar Pullorum C79-13.
The test system of experiment [9] is Staphylococcus epidermidis ATCC 12228.
For experiment [10], the system named is Escherichia coli ATCC 25922.
Experiment [11] has as its system Bacillus subtilis ATCC 23857.
Experiment [12] deals with Klebsiella pneumoniae ATCC 700603.
In experiment [13] the test system is Staphylococcus aureus ATCC 25923.
For experiment [14], the system named is Acinetobacter baumannii ATCC 19606.

`NC(=O)[C@H](Cc1ccccc1)NC(=O)[C@H](CCCN=C(N)N)NC(=O)[C@H](CCCN=C(N)N)NC(=O)[C@H](Cc1c[nH]c2ccccc12)NC(=O)[C@H](Cc1c[nH]c2ccccc12)NC(=O)[C@H](CCCN=C(N)N)NC(=O)[C@@H](N)CCCN=C(N)N` [RRWWRRF]: the MIC in the experiment on Streptococcus mutans stood at 14.6 µM (≈ 17 µg/mL).
In the experiment on Streptococcus mutans, `CC[C@H](C)[C@H](NC(=O)[C@@H](N)CCCN=C(N)N)C(=O)N[C@@H](CC(C)C)C(=O)N[C@@H](CCCCN)C(=O)N[C@@H](CCC(=O)O)C(=O)N[C@@H](CC(C)C)C(=O)N[C@@H](CCCCN)C(=O)N[C@@H](CC(N)=O)C(=O)N[C@@H](CC(C)C)C(=O)N[C@@H](Cc1ccccc1)C(=O)N[C@@H](CCCCN)C(=O)O` [RILKELKNLFK] came in with an MIC of at least 178 µM.
The same measure, in the same setting: with `CC[C@H](C)[C@H](NC(=O)[C@H](CCC(N)=O)NC(=O)[C@H](CC(N)=O)NC(=O)[C@H](Cc1ccccc1)NC(=O)[C@@H](NC(=O)[C@H](CCC(N)=O)NC(=O)[C@H](CC(C)C)NC(=O)[C@H](CC(C)C)NC(=O)[C@@H](N)CCCCN)[C@@H](C)O)C(=O)N[C@@H](Cc1ccccc1)C(=O)N[C@@H](CCCN=C(N)N)C(=O)O` [KLLQTFNQIFR] the figure was at least 88.8 µM.
As to `CC[C@H](C)[C@H](NC(=O)[C@H](CC(N)=O)NC(=O)[C@H](CCCN=C(N)N)NC(=O)[C@H](CCC(N)=O)NC(=O)[C@H](Cc1ccc(O)cc1)NC(=O)[C@@H](N)Cc1ccccc1)C(=O)N[C@@H](CCCN=C(N)N)C(=O)N[C@@H](CCCCN)C(=O)N[C@H](C(=O)N[C@@H](CCCN=C(N)N)C(N)=O)C(C)C` [FYQRNIRKVR], the MIC in [1] was at least 181 µM.
Still for that read-out and setting: the result for `CC[C@H](C)[C@H](NC(=O)[C@H](CCCN=C(N)N)NC(=O)[C@H](Cc1c[nH]c2ccccc12)NC(=O)[C@H](CCCN=C(N)N)NC(=O)[C@H](Cc1c[nH]c2ccccc12)NC(=O)[C@@H](N)Cc1ccccc1)C(=O)N[C@@H](Cc1c[nH]c2ccccc12)C(=O)N[C@@H](CCCN=C(N)N)C(N)=O` [FWRWRIWR] reads 23.9 µM (≈ 31.2 µg/mL).
On the same count and under the same terms, the result for `CC[C@H](C)[C@H](NC(=O)[C@H](CC(N)=O)NC(=O)[C@H](CO)NC(=O)[C@H](CCC(N)=O)NC(=O)[C@H](Cc1c[nH]c2ccccc12)NC(=O)[C@@H](N)Cc1ccccc1)C(=O)N[C@@H](CCCN=C(N)N)C(=O)N[C@@H](CCCCN)C(=O)N[C@H](C(=O)N[C@@H](CCCN=C(N)N)C(N)=O)C(C)C` [FWQSNIRKVR] reads at least 187 µM.
In experiment [1], `CC[C@H](C)[C@H](NC(=O)[C@H](CC(N)=O)NC(=O)[C@H](CCCN=C(N)N)NC(=O)[C@H](CCC(N)=O)NC(=O)[C@H](Cc1c[nH]c2ccccc12)NC(=O)[C@@H](N)Cc1ccccc1)C(=O)N[C@@H](CCCN=C(N)N)C(=O)N[C@@H](CO)C(=O)N[C@H](C(=O)N[C@@H](CCCN=C(N)N)C(N)=O)C(C)C` [FWQRNIRSVR] returned an MIC of at least 184 µM.
In the case of `CC[C@H](C)[C@H](NC(=O)[C@H](CCCN=C(N)N)NC(=O)CNC(=O)[C@@H](NC(=O)[C@@H](NC(=O)[C@H](CCCN=C(N)N)NC(=O)[C@H](CCCCN)NC(=O)[C@H](Cc1ccccc1)NC(=O)[C@H](CCC(=O)O)NC(=O)[C@H](CCCCN)NC(=O)CN)[C@@H](C)CC)C(C)C)C(=O)N[C@@H](Cc1ccc(O)cc1)C(=O)N[C@@H](CCCN=C(N)N)C(=O)N[C@@H](CC(C)C)C(=O)N[C@@H](CS)C(=O)N[C@@H](CS)C(=O)N[C@@H](CCCN=C(N)N)C(N)=O` [GKEFKRIVGRIYRLCCR], the MIC in [2] worked out at 8 µM (≈ 16.8 µg/mL); in experiment [3] it was 16 µM (≈ 33.5 µg/mL); in [4] it was 16 µM (≈ 33.5 µg/mL); in experiment [5], 16 µM (≈ 33.5 µg/mL); in experiment [6] it was 8 µM (≈ 16.8 µg/mL); with Escherichia coli UB1005, 4 µM (≈ 8.39 µg/mL). In addition, the MIC in experiment [7] came to 8 µM (≈ 16.8 µg/mL); in [8], 8 µM (≈ 16.8 µg/mL); in experiment [9], 16 µM (≈ 33.5 µg/mL); in [10], 4 µM (≈ 8.39 µg/mL).
With `CC[C@H](C)[C@H](NC(=O)[C@H](CCCN=C(N)N)NC(=O)[C@H](CCC(N)=O)NC(=O)[C@H](Cc1c[nH]c2ccccc12)NC(=O)[C@@H](N)Cc1ccccc1)C(=O)N[C@@H](CCCN=C(N)N)C(=O)N[C@@H](CCCCN)C(=O)N[C@H](C(=O)N[C@@H](CCCN=C(N)N)C(N)=O)C(C)C` [FWQRIRKVR], in experiment [1], the MIC was at least 194 µM.
Regarding `CC[C@H](C)[C@H](NC(=O)CNC(=O)[C@H](C)NC(=O)[C@@H](NC(=O)[C@H](C)NC(=O)CN)[C@@H](C)CC)C(=O)N[C@H](C(=O)N[C@H](C(=O)N[C@@H](CCCCN)C(=O)N[C@H](C(=O)N[C@@H](CCCCN)C(=O)N[C@@H](CCCCN)C(N)=O)[C@@H](C)CC)[C@@H](C)CC)[C@@H](C)CC` [GAIAGIIIKIKK], the MIC in experiment [10] was 64 µM (≈ 78.3 µg/mL); in experiment [11], at least 32 µM.
Take `CC[C@H](C)[C@H](N)C(=O)N[C@@H](CCCN=C(N)N)C(=O)N[C@H](C(=O)N[C@@H](CCCN=C(N)N)C(=O)N[C@@H](CS)C(=O)N[C@@H](CCCN=C(N)N)C(=O)N[C@@H](CCCN=C(N)N)C(=O)N[C@@H](CCCN=C(N)N)C(=O)N[C@@H](Cc1ccccc1)C(=O)N[C@@H](CS)C(=O)N[C@@H](CCCN=C(N)N)C(=O)N[C@H](C(=O)N[C@@H](CCCN=C(N)N)C(=O)N[C@H](C(N)=O)[C@@H](C)CC)[C@@H](C)CC)[C@@H](C)CC` [IRIRCRRRFCRIRI]: the MIC was found to be 8 µM (≈ 15.3 µg/mL) in [12]; 4 µM (≈ 7.67 µg/mL) in experiment [3]; 4 µM (≈ 7.67 µg/mL) in experiment [5]; 2 µM (≈ 3.83 µg/mL) in experiment [6]; 4 µM (≈ 7.67 µg/mL) in [7]; 1 µM (≈ 1.92 µg/mL) in experiment [8]. In addition, the MIC was found to be 4 µM (≈ 7.67 µg/mL) in experiment [9], 8 µM (≈ 15.3 µg/mL) in experiment [13] and 4 µM (≈ 7.67 µg/mL) in experiment [11].
`CC[C@H](C)[C@H](NC(=O)[C@H](CCCN=C(N)N)NC(=O)[C@@H](NC(=O)[C@H](CC(N)=O)NC(=O)[C@H](CCCN=C(N)N)NC(=O)[C@H](CCC(N)=O)NC(=O)[C@H](Cc1c[nH]c2ccccc12)NC(=O)[C@H](Cc1ccccc1)NC(=O)[C@@H](N)Cc1ccccc1)[C@@H](C)CC)C(=O)N[C@@H](CCCN=C(N)N)C(=O)N[C@@H](CCCN=C(N)N)C(N)=O` [FFWQRNIRIRR] displayed an MIC in [1] of at least 157 µM.
Same read-out and setting: with `CC[C@H](C)[C@H](NC(=O)[C@H](CC(N)=O)NC(=O)[C@H](CCCN=C(N)N)NC(=O)[C@H](CCC(N)=O)NC(=O)[C@H](Cc1c[nH]c2ccccc12)NC(=O)[C@@H](N)Cc1ccccc1)C(=O)N[C@@H](CCCN=C(N)N)C(=O)N[C@@H](CCCCN)C(=O)N[C@@H](Cc1ccc(O)cc1)C(=O)N[C@@H](CCCN=C(N)N)C(N)=O` [FWQRNIRKYR] the figure was at least 170 µM.
In the case of `NC(=O)[C@H](Cc1c[nH]c2ccccc12)NC(=O)[C@H](Cc1c[nH]c2ccccc12)NC(=O)[C@H](CCCN=C(N)N)NC(=O)[C@H](CCCN=C(N)N)NC(=O)[C@H](Cc1c[nH]c2ccccc12)NC(=O)[C@H](CCCN=C(N)N)NC(=O)[C@H](CCCN=C(N)N)NC(=O)[C@H](Cc1c[nH]c2ccccc12)NC(=O)[C@H](Cc1c[nH]c2ccccc12)NC(=O)[C@@H](N)CCCN=C(N)N` [RWWRRWRRWW], the MIC is 32 µM (≈ 55.3 µg/mL) in [12]; 8 µM (≈ 13.8 µg/mL) in experiment [3]; 32 µM (≈ 55.3 µg/mL) in experiment [4]; 32 µM (≈ 55.3 µg/mL) in experiment [14]; 32 µM (≈ 55.3 µg/mL) in experiment [9]; 32 µM (≈ 55.3 µg/mL) in experiment [10]. Moreover, the MIC was 8 µM (≈ 13.8 µg/mL) in experiment [13] and 4 µM (≈ 6.92 µg/mL) in experiment [11].
The compound `CC[C@H](C)[C@H](NC(=O)[C@H](Cc1c[nH]c2ccccc12)NC(=O)[C@H](CC(N)=O)NC(=O)[C@H](CCCN=C(N)N)NC(=O)[C@H](CCC(N)=O)NC(=O)[C@H](Cc1c[nH]c2ccccc12)NC(=O)[C@@H](N)Cc1ccccc1)C(=O)N[C@@H](CCCN=C(N)N)C(=O)N[C@@H](CCCN=C(N)N)C(N)=O` [FWQRNWIRR] registered an MIC in [1] of at least 184 µM.
Regarding `NC(=O)[C@@H]1CCCN1C(=O)[C@H](CCCN=C(N)N)NC(=O)[C@@H]1CCCN1C(=O)[C@H](CCCN=C(N)N)NC(=O)[C@H](CS)NC(=O)[C@H](Cc1ccccc1)NC(=O)[C@H](CCCN=C(N)N)NC(=O)[C@H](CCCN=C(N)N)NC(=O)[C@H](CCCN=C(N)N)NC(=O)[C@H](CS)NC(=O)[C@H](CCCN=C(N)N)NC(=O)[C@@H]1CCCN1C(=O)[C@H](CCCN=C(N)N)NC(=O)[C@@H]1CCCN1` [PRPRCRRRFCRPRP], the MIC was above 128 µM in [3]; above 128 µM in experiment [4]; above 128 µM in experiment [5]; 8 µM (≈ 14.8 µg/mL) in [6]; at least 128 µM in [7]; at least 128 µM in [8]. For the same compound, the results for the MIC in [9] and in [10] were above 128 µM and 16 µM (≈ 29.6 µg/mL), respectively.
